Test results reported in patent US7345065B2, “Methods and compositions for alleviating pain” (Allergan, Inc., priority 2002, dated 2008).

Key:
Chung model rats = assay: Chung rat nerve ligation model, tactile allodynia reversal (Von Frey); format: in vivo; conditions: for allodynia reversal, single oral dose: Compound 3 30 μg/kg, Compound 11 0.1 mg/kg, Compound 4 0.3 mg/kg; for Peak allodynia reversal (dose): intraperitoneal injection, dose (3-300 μg/kg); for allodynia reversal: osmotic minipump 0.1 mg/kg/hour for five days; for persistence of analgesic effects after treatment: subcutaneous osmotic minipump 0.1 mg/kg/hour, seven days; for maintenance of the analgesic effect after minipump removal: osmotic minipump for five days, four week test period
Experimental: The Chung rat nerve ligation model is a well accepted model of peripheral neuropathic pain. In the Chung model, partial ligation of left spinal nerves L-5 and L-6 produces a long-lasting hypersensitivity to light touch on the affected left foot. The hypersensitivity is similar to pain experienced by humans with the neuropathic condition of causalgia (Kim and Chung, Pain 50:355-363 (1992)).
Chung rat surgeries of about 20 minutes duration were performed essentially as follows. Male Sprague-Dawley rats weighing 100 to 120 grams were anesthetized with isofluorane. After shaving and preparing the surgical site with betadine, an incision was made from thoracic vertebra XIII down toward the sacrum, and muscle separated from spinal vertebra (left side) at the L4-S2 levels. The L6 vertebra were located, and the transverse process carefully removed with a small rongeur to visually identify the L4-L6 spinal nerves. L5 and L6 spinal nerves were isolated and tightly ligated with 6-0 silk thread; the wound was sutured after complete hemostasis was confirmed. A small amount of antibiotic ointment was applied to the incised area before transferring the animals to a plastic recovery cage under a regulated heat-temperature lamp. Animals were not treated with any topical or local anesthetics post-operatively.
Assessment of pain in Chung model rats was performed by applying a light tactile stimulus (Von Frey hair) to the affected surgical paw as follows. A 50% pain threshold was established by applying the Von Frey hair in an up-and-down manner to the plantar surface of the surgical paw with just enough force to bend them. A positive response was recorded if the paw was withdrawn sharply. The 50% paw withdrawal threshold was determined using the method of Dixon et al., Ann. Rev. Pharmacol. Toxicol. 20:441-462 (1980). The post-drug threshold was compared to the pre-drug threshold, and the precent reversal of tactile sensitivity calculated based on a normal threshold of 15.1 grams. The results were expressed as % allodynia reversal, reflecting the percentage reversal of pain threshold relative to a normal rat (100%).
Chung surgeries were performed, and pain assessed as described above. Drugs administered via osmotic minipump were delivered as follows. ALZET (Cupertino, Calif.) minipumps (Model #1007D) were implanted subcutaneously on the rats' back between the shoulder blades. Pumps were filled with test solution prior to surgery, which was performed with aseptic procedures and sterilized surgical instruments. After anesthetization with isoflorane and midline incision between the shoulder blades through the muscle, a subcutaneous pocket was exposed. The minipump was inserted into the exposed pocket, before stapling the wounds closed and allowing animals to recover under a warming light.
ALZET osmotic minipumps (model 1007D) hold a total volume of 100 μl and delivered drug at the set rat of 0.5 μl per hour the indicated time period. Drugs were administered at the indicated rate, typically 100 μg/hr/kg, dissolved in 50% DMSO, with the concentration of drug in the pump varied depending on animal weight. […]

rat α-2B (RNG gene) = molecular target: T1, rat α-2B (RNG gene) (Rattus norvegicus, UniProt P19328); assay: RSAT assay, α-2B receptor; format: cell-based; conditions: for EC50: NA = not active (EC50 ≧ 10,000); for fold greater activity at the α-2B receptor than the α-2C receptor: RSAT; for Emax: read-out: % efficacy 2B
T1 construct: expressed in transfected cells; host or cells: NIH-3T3
T1 sequence (P19328 1-453): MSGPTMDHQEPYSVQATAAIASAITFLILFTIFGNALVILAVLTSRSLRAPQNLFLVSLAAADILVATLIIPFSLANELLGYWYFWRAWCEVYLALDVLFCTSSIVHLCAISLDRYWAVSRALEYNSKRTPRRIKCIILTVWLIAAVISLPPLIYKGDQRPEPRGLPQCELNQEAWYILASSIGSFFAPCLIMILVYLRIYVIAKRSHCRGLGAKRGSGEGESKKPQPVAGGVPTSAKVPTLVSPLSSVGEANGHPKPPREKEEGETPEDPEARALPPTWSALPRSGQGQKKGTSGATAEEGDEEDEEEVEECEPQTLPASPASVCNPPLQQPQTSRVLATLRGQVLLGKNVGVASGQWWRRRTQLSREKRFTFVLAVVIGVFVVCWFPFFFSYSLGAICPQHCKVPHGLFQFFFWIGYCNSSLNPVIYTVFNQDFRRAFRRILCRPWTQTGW
Source text: Agonist and antagonist activity, including selectivity and specificity, can be characterized using any of a variety of routine assays, including, without limitation, Receptor Selection and Amplification Technology (RSAT) assays (Messier et al., Pharmacol. Toxicol. 76:308-11 (1995); Conklin et al., Nature 363:274-6 (1993)); cyclic AMP assays (Shimizu et al., J. Neurochem. 16:1609-1619 (1969)); and cytosensor microphysiometry assays (Neve et al., J. Biol. Chem. 267:25748-25753 (1992)). Such assays generally are performed using cells that naturally express only a single α-adrenergic receptor subtype, or using transfected cells expressing a single recombinant α-adrenergic receptor subtype. The adrenergic receptor can be a human receptor or homolog thereof having a similar pharmacology. As disclosed herein, RSAT assays were performed using cells transiently transfected with human α-2A (c10 gene); rat α-2B (RNG gene); human α-2C (c4 gene); bovine α-1A; hamster α-1B; and rat α-1D.
The RSAT assay measures receptor-mediated loss of contact inhibition resulting in selective proliferation of receptor-containing cells in a mixed population of confluent cells. The increase in cell number is assessed with an appropriate detectable marker gene such as β-galactosidase, if desired, in a high throughput or ultra high throughput assay format. Receptors that activate the G protein, Gq, elicit the proliferative response. α-adrenergic receptors, which normally couple to Gi, activate the RSAT response when coexpressed with a hybrid Gq protein containing a Gi receptor recognition domain, designated Gq/i5.
As an example, an RSAT assay can be performed essentially as follows. NIH-3T3 cells are plated at a density of 2×10^6 cells in 15 cm dishes and maintained in Dulbecco's modified Eagle's medium supplemented with 10% calf serum. One day later, cells are cotransfected by calcium phosphate precipitation with mammalian expression plasmids encoding p-SV-β-galactosidase (5-10 μg), receptor (1-2 μg) and G protein (1-2 μg). Carrier DNA, for example 40 μg salmon sperm DNA, also can be included to increase transfection efficiency. Fresh media is added on the following day; one to two days later, cells are harvested and frozen in 50 assay aliquots. Transfected cells are thawed, and 100 μl of cells added to 100 μl aliquots of compound to be tested, with various concentrations assayed in triplicate, for example, in 96-well plates. Incubation continues for 72 to 96 hours at 37°. After washing with phosphate-buffered saline, β-galactosidase activity is determined by adding 200 μl of chromogenic substrate (3.5 mM O-nitrophenyl-β-D-galactopyranoside/0.5% NP-40 in phosphate buffered saline), incubating overnight at 30°, and measuring optical density at 420 nm. The absorbancy is a measure of enzyme activity, which depends on cell number and reflects receptor-mediated cell proliferation. The EC50 and maximal effect (efficacy) of each drug at each receptor is determined.

EC50 (rat α-2B (RNG gene)) [nM]	fold greater activity at the α-2B receptor than the α-2C receptor (rat α-2B (RNG gene))	Emax (rat α-2B (RNG gene)) [%]	SMILES	allodynia reversal, single oral dose (Chung model rats)	Peak allodynia reversal (dose) (Chung model rats)	allodynia reversal (Chung model rats)	analgesia, agonist given alone (Chung model rats; peripheral (intraperitoneal) administration, Chung rats, Compound 2 100 μg/kg, clonidine 100 μg/kg, Compound 3 1 to 1000 μg/kg)	time by which the analgesic effect was gone (Chung model rats; single oral dose)	time to analgesic effect (Chung model rats; single oral dose)	persistence of analgesic effects after treatment (Chung model rats)	maintenance of the analgesic effect after minipump removal (Chung model rats)	oral dose sufficient for an analgesic effect (Chung model rats; single oral dose) [mg/kg]	allodynia reversal and duration at 1 mg/kg oral (Chung model rats; single oral dose 1 mg/kg, compared with 0.3 mg/kg)
24	about 100 fold	90	O=C1c2ccccc2CCC1Cc1c[nH]c(=S)[nH]1 (racemic) [Compound 3]	70-100%	81% +/− 10%	about 80%	significant analgesia without producing sedation	≤ 2 h	less than 20 minutes	continued for over a month after treatment was concluded			
15	more than 10 fold	100	O=c1[nH]cc(CC2CCc3cc(F)ccc32)[nH]1 (stereo not drawn) [Compound 4]	60-80%	80% +/− 6.5%	about 80%		essentially no pain relief was observed after four hours		continued for over a month after treatment was concluded	maintained at essentially the same level over the entire four week test period	0.03	the allodynia was reversed to a greater extent, and the pain relief was of longer duration
42		80	S=c1[nH]cc(CC2CC=CC2)[nH]1 [Compound 11]	60-90%		about 80%		≤ 2 h			maintained at essentially the same level over the entire four week test period		
